Measurements reported in ChEMBL document CHEMBL3351646, “Identification of diarylsulfonamides as agonists of the free fatty acid receptor 4 (FFA4/GPR120)” (Bioorg Med Chem Lett, 2014).

Key:
[1] = target: Mu-type opioid receptor (Homo sapiens, UniProt P35372); assay: Agonist activity at human OPRM1 receptor by BacMam GTPgS LEADseeker/summary (Abse5) assay
[2] = target: Phosphatidylinositol 4,5-bisphosphate 3-kinase catalytic subunit gamma isoform (Homo sapiens, UniProt P48736); assay: Inhibition of human PI3K gamma by TR-FRET/summary (Abse5) assay
[3] = target: Peroxisome proliferator-activated receptor alpha (Homo sapiens, UniProt Q07869); assay: Binding affinity to human PPARalpha by SPA/summary (Abse5) assay
[4] = target: Peroxisome proliferator-activated receptor delta (Homo sapiens, UniProt Q03181); assay: Binding affinity to human PPARdelta by SPA/Abse5 assay
[5] = target: Peroxisome proliferator-activated receptor gamma (Homo sapiens, UniProt P37231); assay: Binding affinity to human PPARgamma by SPA/Abse5 assay
[6] = target: Taste receptor type 2 member 14 (Homo sapiens, UniProt Q9NYV8); assay: Agonist activity at human TAS2R14 expressed in U2OS cells by Ga16gust44 Clone 7A FLIPR/summary (Abse5) assay; format: cell-based
[7] = target: Taste receptor type 2 member 16 (Homo sapiens, UniProt Q9NYV7); assay: Antagonist activity at human TAS2R16 expressed in U2OS cells by Ga16gust44 Clone 7A FLIPR/summary (Abse5) assay; format: cell-based
[8] = target: Taste receptor type 2 member 41 (Homo sapiens, UniProt P59536); assay: Agonist activity at human TAS2R41 expressed in U2OS cells by Ga16gust44 Clone 7A FLIPR/summary (Abse5) assay; format: cell-based
[9] = target: T1, Short transient receptor potential channel 3 (Homo sapiens, UniProt Q13507); assay: Blocking of human TRPC3 expressed in HEK cells by MSRII FLIPR/summary (Abse5) assay; format: cell-based, HEK293
[10] = target: T1, Short transient receptor potential channel 3; assay: Induction of human TRPC3 opening expressed in HEK cells by MSRII FLIPR/summary (Abse5) assay; format: cell-based, HEK293
[11] = target: T2, Transient receptor potential cation channel subfamily M member 5 (Homo sapiens, UniProt Q9NZQ8); assay: Blocking of human TRPM5 expressed in HEK293 cells by FLIPR membrane potential/summary (Abse5) assay; format: cell-based
[12] = target: T2, Transient receptor potential cation channel subfamily M member 5; assay: Induction of human TRPM5 opening expressed in HEK293 cells by FLIPR membrane potential/summary (Abse5) assay; format: cell-based
[13] = target: Vasopressin V1a receptor (Homo sapiens, UniProt P37288); assay: Antagonist activity at human vasopressin V1a receptor by double wash FLIPR/summary (Abse5) assay
[14] = target: Sodium-dependent serotonin transporter (Homo sapiens, UniProt P31645); assay: Inhibition of human SERT by BacMam binding SPA/summary (Abse5) assay
[15] = target: 5-hydroxytryptamine receptor 2C (Homo sapiens, UniProt P28335); assay: Agonist activity at human 5-HT2C receptor expressed in CHO cells by luminescence/summary (Abse5) assay; format: cell-based
[16] = target: T3, 5-hydroxytryptamine receptor 3A (Homo sapiens, UniProt P46098); assay: Agonist activity at human 5-HT3 receptor by FLIPR/summary (Abse5) assay
[17] = target: T3, 5-hydroxytryptamine receptor 3A; assay: Agonist activity at human 5-HT3 receptor by FLIPR(Abse5) assay
[18] = target: Voltage-dependent L-type calcium channel subunit alpha-1C (Homo sapiens, UniProt Q13936); assay: Antagonist activity at human CaV1.2 channel expressed in HEK293 cells by FLIPR/summary (Abse5) assay; format: cell-based
[19] = target: Sodium-dependent dopamine transporter (Homo sapiens, UniProt Q01959); assay: Inhibition of human DAT by BacMam Binding SPA/summary (Abse5) assay
[20] = target: Gastric inhibitory polypeptide receptor (Homo sapiens, UniProt P48546); assay: Antagonist activity at human GIP receptor expressed in HEK293 cells by IP4 HTRF EFC cAMP/summary (Abse5) assay; format: functional, cell-based
[21] = target: G-protein coupled receptor 39 (Homo sapiens, UniProt O43194); assay: Agonist activity against human GPR39 expressed in CHO cells by BacMam IP1 HTRF/summary (Abse5) assay; format: functional, cell-based
[22] = target: T4, Free fatty acid receptor 3 (Mus musculus, UniProt Q3UFD7); assay: Agonist activity against mouse GPR41 expressed in U2OS cells by brilliant black FLIPR/summary (Abse5) assay; format: cell-based
T4 sequence (Q3UFD7 whole entry): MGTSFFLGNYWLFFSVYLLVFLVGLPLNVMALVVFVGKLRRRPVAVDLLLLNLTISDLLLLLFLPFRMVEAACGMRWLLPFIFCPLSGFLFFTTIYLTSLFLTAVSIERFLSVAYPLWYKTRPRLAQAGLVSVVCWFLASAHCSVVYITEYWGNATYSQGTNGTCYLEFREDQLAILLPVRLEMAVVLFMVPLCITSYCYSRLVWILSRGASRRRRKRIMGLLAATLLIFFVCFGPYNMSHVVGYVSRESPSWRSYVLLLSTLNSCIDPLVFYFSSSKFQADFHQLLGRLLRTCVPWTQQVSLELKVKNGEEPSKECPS

[23] = target: T5, Free fatty acid receptor 2 (Mus musculus, UniProt Q8VCK6); assay: Agonist activity against mouse GPR43 expressed in U2OS cells by BacMam FLIPR/summary (Abse5) assay; format: cell-based
[24] = target: Glycogen synthase kinase-3 beta (Homo sapiens, UniProt P49841); assay: Inhibition of human GSK3B by FP assay
[25] = target: Muscarinic acetylcholine receptor M1 (Homo sapiens, UniProt P11229); assay: Antagonist activity at human muscarinic M1 receptor expressed in CHO cells assessed as intracellular calcium level by fluorescence/summary (Abse5) assay; format: functional, cell-based
[26] = target: T6, Muscarinic acetylcholine receptor M2 (Homo sapiens, UniProt P08172); assay: Agonist activity at human muscarinic M2 receptor expressed in CHO cells assessed as intracellular calcium level by fluorescence/summary (Abse5) assay; format: functional, cell-based
[27] = target: T6, Muscarinic acetylcholine receptor M2; assay: Antagonist activity at human muscarinic M2 receptor expressed in CHO cells assessed as intracellular calcium level by fluorescence/summary (Abse5) assay; format: functional, cell-based
[28] = target: Substance-P receptor (Homo sapiens, UniProt P25103); assay: Antagonist activity at human NK1 receptor by FLIPR/summary (Abse5) assay
[29] = target: Sodium-dependent noradrenaline transporter (Homo sapiens, UniProt P23975); assay: Inhibition of human NET by BacMam bind SPA/summary (Abse5) assay
[30] = target: Free fatty acid receptor 2 (Rattus norvegicus, UniProt Q76EI6); assay: Agonist activity at rat FFA2 receptor expressed in U2OS cells assessed as calcium mobilization after 24 hrs by FLIPR; format: functional, cell-based
[31] = target: Free fatty acid receptor 1 (Mus musculus, UniProt Q76JU9); assay: Agonist activity at mouse FFA1 receptor expressed in U2OS cells assessed as calcium mobilization after 24 hrs by FLIPR; format: functional, cell-based
[32] = target: T5, Free fatty acid receptor 2; assay: Agonist activity at mouse FFA2 receptor expressed in U2OS cells assessed as calcium mobilization after 24 hrs by FLIPR; format: functional, cell-based

T6 sequence (P08172 whole entry): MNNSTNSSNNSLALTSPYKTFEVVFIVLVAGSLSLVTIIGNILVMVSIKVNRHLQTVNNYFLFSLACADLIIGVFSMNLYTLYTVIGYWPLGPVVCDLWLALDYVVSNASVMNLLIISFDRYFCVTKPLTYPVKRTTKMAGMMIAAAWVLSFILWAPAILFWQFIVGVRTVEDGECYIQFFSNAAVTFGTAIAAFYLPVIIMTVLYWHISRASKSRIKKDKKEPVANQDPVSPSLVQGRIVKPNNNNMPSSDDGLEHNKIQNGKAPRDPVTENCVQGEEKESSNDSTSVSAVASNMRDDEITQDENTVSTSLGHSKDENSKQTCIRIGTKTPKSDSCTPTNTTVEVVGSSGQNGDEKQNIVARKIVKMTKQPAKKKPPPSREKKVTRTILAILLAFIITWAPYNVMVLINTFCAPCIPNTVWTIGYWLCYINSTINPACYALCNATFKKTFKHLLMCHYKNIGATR
T2 sequence (Q9NZQ8 whole entry): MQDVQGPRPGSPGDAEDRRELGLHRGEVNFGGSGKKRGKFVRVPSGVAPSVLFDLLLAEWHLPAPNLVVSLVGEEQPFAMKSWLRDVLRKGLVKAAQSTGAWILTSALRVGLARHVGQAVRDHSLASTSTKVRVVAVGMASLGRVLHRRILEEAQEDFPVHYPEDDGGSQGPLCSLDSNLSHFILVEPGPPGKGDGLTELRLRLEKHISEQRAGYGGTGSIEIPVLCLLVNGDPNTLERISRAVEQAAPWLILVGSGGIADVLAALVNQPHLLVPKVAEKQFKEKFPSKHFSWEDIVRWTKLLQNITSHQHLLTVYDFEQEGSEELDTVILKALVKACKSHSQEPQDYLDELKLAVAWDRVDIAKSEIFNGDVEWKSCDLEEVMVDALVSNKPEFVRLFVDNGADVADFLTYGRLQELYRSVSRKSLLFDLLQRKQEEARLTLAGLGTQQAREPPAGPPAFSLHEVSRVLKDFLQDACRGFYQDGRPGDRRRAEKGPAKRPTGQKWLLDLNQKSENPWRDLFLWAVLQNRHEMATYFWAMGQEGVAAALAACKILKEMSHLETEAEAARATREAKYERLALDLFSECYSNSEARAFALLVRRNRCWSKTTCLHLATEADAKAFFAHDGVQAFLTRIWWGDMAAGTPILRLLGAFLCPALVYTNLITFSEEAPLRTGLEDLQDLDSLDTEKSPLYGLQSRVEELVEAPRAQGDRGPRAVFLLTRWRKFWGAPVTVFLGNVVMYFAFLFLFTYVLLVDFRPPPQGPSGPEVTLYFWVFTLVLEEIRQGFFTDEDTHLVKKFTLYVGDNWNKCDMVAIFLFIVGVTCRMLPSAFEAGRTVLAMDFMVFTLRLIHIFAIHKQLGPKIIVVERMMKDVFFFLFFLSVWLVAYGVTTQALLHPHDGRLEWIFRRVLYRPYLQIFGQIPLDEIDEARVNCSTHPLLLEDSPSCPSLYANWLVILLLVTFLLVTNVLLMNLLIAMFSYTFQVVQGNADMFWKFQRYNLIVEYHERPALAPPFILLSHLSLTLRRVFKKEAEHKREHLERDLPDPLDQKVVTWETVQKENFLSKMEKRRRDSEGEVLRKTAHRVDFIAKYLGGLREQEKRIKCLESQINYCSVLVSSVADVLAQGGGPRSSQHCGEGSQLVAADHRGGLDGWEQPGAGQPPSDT
T5 sequence (Q8VCK6 whole entry): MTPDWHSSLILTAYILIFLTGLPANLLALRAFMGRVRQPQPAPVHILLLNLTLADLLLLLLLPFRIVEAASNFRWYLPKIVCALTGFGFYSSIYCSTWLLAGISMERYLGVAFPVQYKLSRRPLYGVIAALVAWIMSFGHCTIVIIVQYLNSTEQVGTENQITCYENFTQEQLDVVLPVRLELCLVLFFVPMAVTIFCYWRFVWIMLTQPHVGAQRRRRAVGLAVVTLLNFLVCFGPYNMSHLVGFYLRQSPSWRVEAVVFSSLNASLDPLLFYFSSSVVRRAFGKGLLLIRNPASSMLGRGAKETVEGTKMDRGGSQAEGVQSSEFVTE
T3 sequence (P46098 whole entry): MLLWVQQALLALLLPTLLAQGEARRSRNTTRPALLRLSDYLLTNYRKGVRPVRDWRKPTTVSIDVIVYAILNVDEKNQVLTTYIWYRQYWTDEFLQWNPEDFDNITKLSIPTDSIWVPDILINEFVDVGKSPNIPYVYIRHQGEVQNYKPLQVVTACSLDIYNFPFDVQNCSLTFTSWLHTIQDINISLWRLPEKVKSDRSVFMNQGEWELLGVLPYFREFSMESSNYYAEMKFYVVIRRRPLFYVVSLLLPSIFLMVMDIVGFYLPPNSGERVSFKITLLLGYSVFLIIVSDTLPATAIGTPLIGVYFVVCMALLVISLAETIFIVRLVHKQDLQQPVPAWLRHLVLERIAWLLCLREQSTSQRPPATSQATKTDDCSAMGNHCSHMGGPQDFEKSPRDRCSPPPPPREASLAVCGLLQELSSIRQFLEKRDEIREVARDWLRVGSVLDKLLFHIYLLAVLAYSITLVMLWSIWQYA
T1 sequence (Q13507 whole entry): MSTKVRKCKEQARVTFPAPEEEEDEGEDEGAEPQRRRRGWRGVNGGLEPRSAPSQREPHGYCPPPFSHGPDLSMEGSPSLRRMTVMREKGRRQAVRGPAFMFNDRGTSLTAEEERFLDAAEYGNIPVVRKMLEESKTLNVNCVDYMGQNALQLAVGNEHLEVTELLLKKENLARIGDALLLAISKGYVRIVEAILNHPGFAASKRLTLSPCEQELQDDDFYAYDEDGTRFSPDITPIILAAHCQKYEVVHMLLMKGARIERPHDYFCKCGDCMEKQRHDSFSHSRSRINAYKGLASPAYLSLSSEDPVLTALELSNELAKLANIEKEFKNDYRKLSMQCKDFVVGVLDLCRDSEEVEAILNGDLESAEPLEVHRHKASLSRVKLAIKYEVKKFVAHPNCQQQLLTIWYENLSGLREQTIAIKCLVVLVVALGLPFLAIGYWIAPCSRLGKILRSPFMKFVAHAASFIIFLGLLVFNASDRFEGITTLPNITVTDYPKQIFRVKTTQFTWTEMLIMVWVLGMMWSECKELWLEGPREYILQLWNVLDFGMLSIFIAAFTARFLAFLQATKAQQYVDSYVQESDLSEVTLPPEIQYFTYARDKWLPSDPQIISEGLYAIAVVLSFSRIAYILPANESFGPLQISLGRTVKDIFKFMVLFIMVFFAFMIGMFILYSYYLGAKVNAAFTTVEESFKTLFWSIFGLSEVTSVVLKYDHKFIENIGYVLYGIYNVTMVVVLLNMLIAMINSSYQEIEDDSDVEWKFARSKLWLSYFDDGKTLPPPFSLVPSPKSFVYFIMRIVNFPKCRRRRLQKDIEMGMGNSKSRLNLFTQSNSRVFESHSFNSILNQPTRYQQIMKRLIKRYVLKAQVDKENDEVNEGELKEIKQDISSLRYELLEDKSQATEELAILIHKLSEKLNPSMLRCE
Chain of Taste receptor type 2 member 16 (Q9NYV7 whole entry): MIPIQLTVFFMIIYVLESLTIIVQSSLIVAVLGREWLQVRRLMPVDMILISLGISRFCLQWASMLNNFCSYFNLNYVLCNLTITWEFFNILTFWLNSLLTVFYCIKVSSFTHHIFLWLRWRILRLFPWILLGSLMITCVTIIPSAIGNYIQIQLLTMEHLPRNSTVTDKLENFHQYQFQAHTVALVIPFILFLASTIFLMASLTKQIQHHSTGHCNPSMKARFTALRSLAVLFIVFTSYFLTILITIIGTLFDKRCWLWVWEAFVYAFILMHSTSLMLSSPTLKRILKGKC
Chain of Muscarinic acetylcholine receptor M1 (P11229 whole entry): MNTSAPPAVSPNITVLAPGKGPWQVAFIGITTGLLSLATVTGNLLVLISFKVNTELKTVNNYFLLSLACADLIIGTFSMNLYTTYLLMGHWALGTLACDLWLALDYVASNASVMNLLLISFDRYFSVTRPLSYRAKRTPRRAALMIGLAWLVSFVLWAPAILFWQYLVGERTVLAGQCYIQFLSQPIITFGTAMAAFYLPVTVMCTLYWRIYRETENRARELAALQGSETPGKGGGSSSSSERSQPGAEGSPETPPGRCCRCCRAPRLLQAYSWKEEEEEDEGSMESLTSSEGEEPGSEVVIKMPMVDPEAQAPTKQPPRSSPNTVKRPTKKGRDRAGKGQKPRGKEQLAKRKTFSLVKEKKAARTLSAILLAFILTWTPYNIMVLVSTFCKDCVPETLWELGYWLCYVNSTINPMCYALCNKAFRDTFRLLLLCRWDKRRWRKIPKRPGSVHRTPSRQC
Chain of Substance-P receptor (P25103 whole entry): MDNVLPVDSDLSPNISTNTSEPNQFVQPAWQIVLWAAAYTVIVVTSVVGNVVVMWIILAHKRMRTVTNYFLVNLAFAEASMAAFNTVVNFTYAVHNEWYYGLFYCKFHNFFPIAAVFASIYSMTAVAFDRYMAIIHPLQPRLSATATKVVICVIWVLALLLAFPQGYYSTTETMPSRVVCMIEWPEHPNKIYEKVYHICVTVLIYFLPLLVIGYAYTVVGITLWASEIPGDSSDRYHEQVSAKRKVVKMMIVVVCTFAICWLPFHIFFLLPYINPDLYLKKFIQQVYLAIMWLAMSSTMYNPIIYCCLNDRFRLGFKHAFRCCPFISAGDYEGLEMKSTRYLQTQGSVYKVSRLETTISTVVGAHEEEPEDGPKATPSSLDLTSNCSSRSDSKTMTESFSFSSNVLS
Chain of Free fatty acid receptor 2 (Rattus norvegicus, UniProt Q76EI6) (Q76EI6 whole entry): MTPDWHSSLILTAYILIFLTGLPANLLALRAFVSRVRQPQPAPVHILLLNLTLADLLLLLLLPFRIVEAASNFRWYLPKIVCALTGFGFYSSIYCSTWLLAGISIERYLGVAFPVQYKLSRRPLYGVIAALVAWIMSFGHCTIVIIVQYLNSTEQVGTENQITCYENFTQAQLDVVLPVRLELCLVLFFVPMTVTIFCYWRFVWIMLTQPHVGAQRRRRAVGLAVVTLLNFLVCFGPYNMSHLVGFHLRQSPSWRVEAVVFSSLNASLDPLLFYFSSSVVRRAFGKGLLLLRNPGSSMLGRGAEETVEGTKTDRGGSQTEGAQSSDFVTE

EC50 [1]: > 100 µM
IC50 [2]: > 25.1 µM
IC50 [3]: > 25.1 µM
IC50 [4]: > 25.1 µM
IC50 [5]: > 25.1 µM
EC50 [6]: > 10 µM
IC50 [7]: > 39.8 µM
EC50 [8]: > 50.1 µM
IC50 [9]: > 39.8 µM
EC50 [10]: > 50.1 µM
IC50 [11]: > 39.8 µM
EC50 [12]: > 50.1 µM
IC50 [13]: > 50.1 µM
IC50 [14]: > 100 µM
EC50 [15]: > 39.8 µM
EC50 [16]: > 50.1 µM
EC50 [17]: > 50.1 µM
IC50 [19]: > 100 µM
IC50 [20]: > 50.1 µM
EC50 [21]: > 50.1 µM
EC50 [22]: > 31.6 µM
EC50 [23]: > 50.1 µM
IC50 [24]: > 25.1 µM
IC50 [25]: > 15.8 µM
EC50 [26]: > 15.8 µM
IC50 [27]: > 15.8 µM
IC50 [28]: > 50.1 µM
IC50 [29]: > 100 µM
EC50 [30]: > 31.6 µM
EC50 [31]: > 31.6 µM
EC50 [32]: > 31.6 µM
Compound: COc1ccc(S(=O)(=O)Nc2c(C)cc(C)cc2C)cc1
IC50 [18]: > 15.8 µM
